Measured values reported in patent US20080119496A1, “7-Substituted Purine Derivatives for Immunosuppression” (PHARMACOPEIA DRUG DISCOVERY, INC., priority 2006, published 2008).

Legend:
[1] = test system: IL-2-induced IFN-γ production; test: IL-2-Induced IFN-γ Production in the Mouse; format: in vivo; settings: po, 1 h, by gavage one hour before IL-2, serum IFN-γ, female BALB/c mice, read-out: inhibition of IL-2-induced IFN-gamma production
Procedure: Administration of IL-2 leads to an increase in serum IFN-γ in the mouse due to NK secretion of the cytokine (Thornton S, Kuhn K A, Finkelman F D and Hirsch R. NK cells secrete high levels of IFN-γ in response to in vivo administration of IL-2. Eur J Immunol 2001 31:3355-3360). The experiment was carried out essentially according to the protocol in Thornton et al. and the test compounds were administered in order to determine the level of inhibition attained. In summary, female BALB/c mice were fasted for 12-18 hours before a study but had free access to water at all times. Test compounds were administered by gavage one hour before intraperitoneal injection of IL-2 and capture antibody. At termination of the studies, the mice were sacrificed by carbon dioxide inhalation, terminal blood samples were collected by cardiac puncture and serum was generated. Serum was stored frozen until it was assayed for IFN-γ, as described by the kit manufacturer (BD Pharmingen™, San Diego, Calif.).

[2] = test system: heart transplantation; settings: orally active; Changelian, et al., 2003; cited from earlier work
[3] = test system: kidney transplantation; settings: orally active; Changelian, et al., 2003; cited from earlier work
[4] = test system: GVHD; settings: reviewed in Cetkovic-Cvrlje and Ucken, 2004; cited from earlier work
[5] = test system: spontaneous autoimmune diabetes; settings: NOD mouse; cited from earlier work

| Structure (SMILES) | inhibition at 30 mg/kg [1] [%] | other results |
| --- | --- | --- |
| C[C@@H]1CCN(C(=O)CC#N)C[C@@H]1N(C)c1ncnc2[nH]ccc12 [CP690550] | 96 | – |
| C[C@@H]1CCN(C(=O)CC#N)C[C@@H]1N(C)c1ncnc2[nH]ccc12 [CP-690,550] | – | animal survival / immunosuppression [2]: prolong animal survival; animal survival / immunosuppression [3]: prolong animal survival |
| O=c1[nH]c2cnc(-n3cnc4ccccc43)nc2n1[C@@H]1CCOc2c(F)cccc21 [Example 16, 2-(1H-Benzo[d]imidazol-1-yl)-9-((R)-8-fluorochroman-4-yl)-7H-purin-8(9H)-one] | > 40 | – |
| O=c1[nH]c2cnc(-n3cnc4cc(F)ccc43)nc2n1[C@@H]1CCOc2c(F)cccc21 [Example 28, 2-(5-Fluoro-1H-benzo[d]imidazol-1-yl)-9-((R)-8-fluorochroman-4-yl)-7H-purin-8(9H)-one] | > 40 | – |
| Cn1c(=O)n(C2CCOc3c(F)cc(F)cc32)c2nc(-n3cnc4ccc(C#N)cc43)ncc21 (stereo not shown) [Example 501] | > 40 | – |
| Cn1c(=O)n(C2CCOc3ccc(F)cc32)c2nc(-n3cnc4ccc(C#N)cc43)ncc21 (stereo not shown) [Example 504] | > 40 | – |
| Cn1c(=O)n([C@@H]2CCOc3c(F)cccc32)c2nc(-n3cnc4ccc(C#N)cc43)ncc21 [Example 505] | > 40 | – |
| COc1cc2ncnc(Nc3ccc(O)cc3)c2cc1OC [JANEX-1] | – | severity of GVHD [4]: attenuate the severity of GVHD; spontaneous autoimmune diabetes development [5]: prevent spontaneous autoimmune diabetes development |
